Tests used:
[1] = Stability of the compound in mouse plasma assessed as parent compound remaining at 1 uM measured after 5 mins; assay type: ADME, cell-free; details: read-out: Stabilty
[2] = Cmax in overnight-fasted ICR mouse systemic circulation at 50 mg/kg, po measured after 1 hr by LC-MS/MS analysis; assay type: ADME, organism-based; parameters: route oral, time 1 hrs, dose 50 mg/kg
[3] = Cmax in overnight-fasted ICR mouse systemic circulation assessed as 5-[3-(4-Cyclopropyl-3,4-dihydro-2H-quinoxaline-1-carbonyl)-pyridin-4-yloxy]-benzofuran-3-carboxylic acid at 50 mg/kg, po measured after 1 hr by LC-MS/MS analysis; assay type: ADME, organism-based; parameters: route oral, dose 50 mg/kg, time 1 hrs; details: in vivo
[4] = Cmax in overnight-fasted ICR mouse gallbladder tissue assessed as 5-[3-(4-Cyclopropyl-3,4-dihydro-2H-quinoxaline-1-carbonyl)-pyridin-4-yloxy]-benzofuran-3-carboxylic acid at 50 mg/kg, po measured after 1 hr by LC-MS/MS analysis; assay type: ADME, organism-based, Gall bladder; parameters: route oral, time 1 hrs, dose 50 mg/kg; details: in vivo
[5] = Cmax in overnight-fasted ICR mouse bile assessed as 5-[3-(4-Cyclopropyl-3,4-dihydro-2H-quinoxaline-1-carbonyl)-pyridin-4-yloxy]-benzofuran-3-carboxylic acid at 50 mg/kg, po measured after 1 hr by LC-MS/MS analysis; assay type: ADME, organism-based; parameters: route oral, time 1 hrs, dose 50 mg/kg; details: in vivo
[6] = Peak drug concentration in overnight-fasted ICR mouse ileum at 50 mg/kg, po measured after 2 hr by LC-MS/MS analysis; assay type: ADME, organism-based; parameters: route oral, dose 50 mg/kg, time 2 hrs
[7] = Peak drug concentration in overnight-fasted ICR mouse colon at 50 mg/kg, po measured after 4 hr by LC-MS/MS analysis; assay type: ADME, organism-based; parameters: route oral, time 4 hrs, dose 50 mg/kg

Q: With `COC(=O)c1coc2ccc(Oc3ccncc3C(=O)N3CCN(C4CC4)c4ccccc43)cc12` as the compound, how does the remaining at 5 min, 1 µM [1] read?
A: 71%

Q: With `CCOC(=O)c1coc2ccc(Oc3ccncc3C(=O)N3CCN(C4CC4)c4ccccc43)cc12` as the compound, how does the remaining at 5 min, 1 µM [1] read?
A: 38.5%

Q: With `CCOC(=O)c1coc2cc(Cl)c(Oc3ccncc3C(=O)N3CCN(C4CC4)c4ccccc43)cc12` as the compound, how does the remaining at 5 min, 1 µM [1] read?
A: 92.4%

Q: For `CCCOC(=O)c1coc2ccc(Oc3ccncc3C(=O)N3CCN(C4CC4)c4ccccc43)cc12`, which remaining at 5 min, 1 µM [1] is on record?
A: 12.3%

Q: Which Cmax [2] does the source give for `CCOCOC(=O)c1coc2ccc(Oc3ccncc3C(=O)N3CCN(C4CC4)c4ccccc43)cc12` here?
A: 3 ng/mL

Q: What about the Cmax [3] of the same compound?
A: 80 ng/mL

Q: And the Cmax [4]?
A: 80 ng/mL

Q: And the Cmax [5]?
A: 80 ng/mL

Q: What about the Cmax [6] of the same compound?
A: 10200 ng/g

Q: And the Cmax [7]?
A: 2700 ng/g

Source: ChEMBL document CHEMBL4765387, “Design of G-protein-coupled bile acid receptor 1 (GPBAR1, TGR5) soft drugs with reduced gallbladder-filling effects” (Eur J Med Chem, 2020)
